Target: SIRT6 enzyme (Homo sapiens, UniProt Q8N6T7)
Assay: Measurement of deacetylation activity (SIRT6, AlphaLISA, H3K9(Ac) peptide)
Assay type: biochemical
Conditions: SIRT6 25 ng/mL, H3K9(Ac) biotin peptide 2 nM, NAD 10 μM, room temperature 30 minutes, duplicate
How it was run: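 Activation read as EC150, the concentration giving 150% activity relative to enzyme/no-enzyme DMSO controls, via variable-slope fit. Deacetylation of 2 nM biotinylated H3K9(Ac) peptide with 10 μM NAD+ by 25 ng/mL SIRT6 ran 30 min at room temperature, pH 8.0, then AlphaLISA detection of unmodified H3K9.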

SIRT6 enzyme, sequence (Q8N6T7 whole entry, species assumed): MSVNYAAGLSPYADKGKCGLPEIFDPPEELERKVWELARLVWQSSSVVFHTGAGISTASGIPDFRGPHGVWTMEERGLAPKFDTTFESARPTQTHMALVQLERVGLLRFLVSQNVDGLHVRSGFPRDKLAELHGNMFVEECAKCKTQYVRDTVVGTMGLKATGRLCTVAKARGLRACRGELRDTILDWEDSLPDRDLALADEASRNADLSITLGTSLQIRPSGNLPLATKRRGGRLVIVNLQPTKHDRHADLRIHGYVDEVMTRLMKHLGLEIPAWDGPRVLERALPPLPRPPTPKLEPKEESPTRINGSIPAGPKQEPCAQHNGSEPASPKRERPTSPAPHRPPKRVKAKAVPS

Row | Structure (SMILES) | EC150 (the concentration of the compound showing a relative enzyme activity of 150%) [μm]
1 | CCOC(=O)N1CC2Cc3nc(NC(=O)NC)sc3C(C1)N2c1nc(C2(C(F)(F)F)CC2)no1 (stereo not drawn) [Example 134, Ethyl 2-[(methylcarbamoyl)amino]-10-{3-[1-(trifluoromethyl)cyclopropyl]-1,2,4-oxadiazol-5-yl}-4,7,8,9-tetrahydro-4,8-epimino[1,3]thiazolo[5,4-d]azocine-6(5H)-carboxylate] | 3.5
2 | CNC(=O)Nc1nc2c(s1)C1CN(C(=O)OC)CC(C2)N1c1nc(C23CC(C(F)F)(C2)C3)no1 (stereo not drawn) [Example 135, Methyl 10-{3-[3-(difluoromethyl)bicyclo[1.1.1]pentan-1-yl]-1,2,4-oxadiazol-5-yl}-2-[(methylcarbamoyl)amino]-4,7,8,9-tetrahydro-4,8-epimino[1,3]thiazolo[5,4-d]azocine-6(5H)-carboxylate] | 2.1
3 | CCNC(=O)Nc1nc2c(s1)C1CN(C(C)=O)CC(C2)N1c1nc(-c2ccc(F)cc2)no1 (stereo not drawn) [Example 136, N-{6-acetyl-10-[3-(4-fluorophenyl)-1,2,4-oxadiazol-5-yl]-4,5,6,7,8,9-hexahydro-4,8-epimino[1,3]thiazolo[5,4-d]azocin-2-yl}-N′-ethylurea] | 0.34
4 | CC(=O)N1CC2Cc3nc(NC(=O)NC(C)C)sc3C(C1)N2c1nc(-c2ccc(F)cc2)no1 (stereo not drawn) [Example 137, N-{6-acetyl-10-[3-(4-fluorophenyl)-1,2,4-oxadiazol-5-yl]-4,5,6,7,8,9-hexahydro-4,8-epimino[1,3]thiazolo[5,4-d]azocin-2-yl}-N′-propan-2-ylurea] | 0.36
5 | CNC(=O)Nc1nc2c(s1)C1CN(C(C)=O)CC(C2)N1c1nc(-c2cccc(F)c2)no1 (stereo not drawn) [Example 138, N-{6-acetyl-10-[3-(3-fluorophenyl)-1,2,4-oxadiazol-5-yl]-4,5,6,7,8,9-hexahydro-4,8-epimino[1,3]thiazolo[5,4-d]azocin-2-yl}-N′-methylurea] | 0.46
6 | CNC(=O)Nc1nc2c(s1)C1CN(C(C)=O)CC(C2)N1c1ncc(-c2cccc(Cl)c2)o1 (stereo not drawn) [Example 139, N-{6-acetyl-10-[5-(3-chlorophenyl)-1,3-oxazol-2-yl]-4,5,6,7,8,9-hexahydro-4,8-epimino[1,3]thiazolo[5,4-d]azocin-2-yl}-N′-methylurea] | 0.36
7 | CC(=O)N1CC2Cc3nc(NC(=O)N[C@@H]4CCOC4)sc3C(C1)N2c1nc(-c2ccc(F)cc2)no1 (stereo partly drawn) [Example 140, N-{6-acetyl-10-[3-(4-fluorophenyl)-1,2,4-oxadiazol-5-yl]-4,5,6,7,8,9-hexahydro-4,8-epimino[1,3]thiazolo[5,4-d]azocin-2-yl}-N′-[(3R)-oxolan-3-yl]urea] | 0.16
8 | CNC(=O)Nc1nc2c(s1)C1CN(C(=O)OC)CC(C2)N1c1nc2cc(OC)ccc2o1 (stereo not drawn) [Example 141, Methyl 10-(5-methoxy-1,3-benzoxazol-2-yl)-2-[(methylcarbamoyl)amino]-4,7,8,9-tetrahydro-4,8-epimino[1,3]thiazolo[5,4-d]azocine-6(5H)-carboxylate] | 0.58
9 | CNC(=O)Nc1nc2c(s1)C1CN(C(=O)OC)CC(C2)N1c1nc(-c2ccc(F)cn2)no1 (stereo not drawn) [Example 142, Methyl 10-[3-(5-fluoropyridin-2-yl)-1,2,4-oxadiazol-5-yl]-2-[(methylcarbamoyl)amino]-4,7,8,9-tetrahydro-4,8-epimino[1,3]thiazolo[5,4-d]azocine-6(5H)-carboxylate] | 3.3

From patent US11981686B2, “Urea compound having substituent” (DAIICHI SANKYO COMPANY, LIMITED, priority 2019, dated 2024)
